Measured values published in PubChem BioAssay (NCI).
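GI50 = concentration required for 50% inhibition of growth. TGI: total growth inhibition.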

How the values were obtained:
Assay in all cases: NCI-60 cell line screen, 384-well format
[1] = test system: 786-0 renal
[2] = test system: A498 renal
[3] = test system: A549 NSCLC
[4] = test system: ACHN renal
[5] = test system: BT-549 breast
[6] = test system: CAKI-1 renal
[7] = test system: CCRF-CEM leukemia
[8] = test system: COLO 205 colon
[9] = test system: DU-145 prostate
[10] = test system: EKVX NSCLC
[11] = test system: HCC-2998 colon
[12] = test system: HCT-116 colon
[13] = test system: HCT-15 colon
[14] = test system: HL-60(TB) leukemia
[15] = test system: HOP-62 NSCLC
[16] = test system: HOP-92 NSCLC
[17] = test system: HS 578T breast
[18] = test system: HT29 colon
[19] = test system: IGROV1 ovarian
[20] = test system: K-562 leukemia
[21] = test system: KM12 colon
[22] = test system: LOX IMVI melanoma
[23] = test system: M14 melanoma
[24] = test system: MALME-3M melanoma
[25] = test system: MCF7 breast
[26] = test system: MDA-MB-231 breast
[27] = test system: MDA-MB-435 melanoma
[28] = test system: MDA-MB-468 breast
[29] = test system: MOLT-4 leukemia
[30] = test system: NCI-H226 lung
[31] = test system: NCI-H23 lung
[32] = test system: NCI-H322M lung
[33] = test system: NCI-H460 NSCLC
[34] = test system: NCI-H522 lung
[35] = test system: NCI/ADR-RES ovarian
[36] = test system: OVCAR-3 ovarian
[37] = test system: OVCAR-4 ovarian
[38] = test system: OVCAR-5 ovarian
[39] = test system: OVCAR-8 ovarian
[40] = test system: PC-3 prostate
[41] = test system: RPMI-8226 leukemia
[42] = test system: RXF 393 renal
[43] = test system: SF-268 CNS
[44] = test system: SF-295 CNS
[45] = test system: SF-539 CNS
[46] = test system: SK-MEL-28 melanoma
[47] = test system: SK-MEL-5 melanoma
[48] = test system: SK-OV-3 ovarian
[49] = test system: SN12C renal
[50] = test system: SNB-19 CNS
[51] = test system: SNB-75 CNS
[52] = test system: SR leukemia
[53] = test system: SW-620 colon
[54] = test system: T-47D breast
[55] = test system: TK-10 renal
[56] = test system: U251 glioblastoma
[57] = test system: UACC-257 melanoma
[58] = test system: UO-31 renal

Cn1cc(-c2ccc3nnc(C(F)(F)c4ccc5ncccc5c4)n3n2)cn1
GI50 [1]: 43.9 µM
TGI [1]: > 100 µM
GI50 [2]: 63.2 µM
TGI [2]: > 100 µM
GI50 [3]: 85.5 µM
TGI [3]: > 100 µM
GI50 [4]: 46.1 µM
TGI [4]: > 100 µM
GI50 [5]: 38.1 µM
TGI [5]: > 100 µM
GI50 [6]: 46.4 µM
TGI [6]: > 100 µM
GI50 [7]: 48.5 µM
TGI [7]: > 100 µM
GI50 [8]: 99 µM
TGI [8]: > 100 µM
GI50 [9]: 59.1 µM
TGI [9]: > 100 µM
GI50 [10]: 52.6 µM
TGI [10]: > 100 µM
GI50 [11]: 49.9 µM
TGI [11]: > 100 µM
GI50 [12]: 49.2 µM
TGI [12]: > 100 µM
GI50 [13]: 60.5 µM
TGI [13]: > 100 µM
GI50 [14]: 36.3 µM
TGI [14]: > 100 µM
GI50 [15]: 41.2 µM
TGI [15]: > 100 µM
GI50 [16]: 39.7 µM
TGI [16]: > 100 µM
GI50 [17]: 35.3 µM
TGI [17]: > 100 µM
GI50 [18]: 95.3 µM
TGI [18]: > 100 µM
GI50 [19]: 58.2 µM
TGI [19]: > 100 µM
GI50 [20]: 53.6 µM
TGI [20]: > 100 µM
GI50 [21]: 47.8 µM
TGI [21]: > 100 µM
GI50 [22]: 68.5 µM
TGI [22]: > 100 µM
GI50 [23]: > 100 µM
TGI [23]: > 100 µM
GI50 [24]: 65 µM
TGI [24]: > 100 µM
GI50 [25]: 41.8 µM
TGI [25]: > 100 µM
GI50 [26]: 53.5 µM
TGI [26]: > 100 µM
GI50 [27]: > 100 µM
TGI [27]: > 100 µM
GI50 [28]: 10.2 µM
TGI [28]: 59.6 µM
GI50 [29]: 17.6 µM
TGI [29]: 36.4 µM
GI50 [30]: 56.3 µM
TGI [30]: > 100 µM
GI50 [31]: 25 µM
TGI [31]: > 100 µM
GI50 [32]: 62.9 µM
TGI [32]: > 100 µM
GI50 [33]: 45.8 µM
TGI [33]: > 100 µM
GI50 [34]: 41.6 µM
TGI [34]: > 100 µM
GI50 [35]: 41.4 µM
TGI [35]: > 100 µM
GI50 [36]: 61.8 µM
TGI [36]: > 100 µM
GI50 [37]: 59.9 µM
TGI [37]: > 100 µM
GI50 [38]: 59.8 µM
TGI [38]: > 100 µM
GI50 [39]: 61.4 µM
TGI [39]: > 100 µM
GI50 [40]: 52.9 µM
TGI [40]: > 100 µM
GI50 [41]: 23.7 µM
TGI [41]: 97.8 µM
GI50 [42]: 25.2 µM
TGI [42]: 72.7 µM
GI50 [43]: 98.1 µM
TGI [43]: > 100 µM
GI50 [44]: 2.06 µM
TGI [44]: > 100 µM
GI50 [45]: 56.3 µM
TGI [45]: > 100 µM
GI50 [46]: > 100 µM
TGI [46]: > 100 µM
GI50 [47]: 29.7 µM
TGI [47]: > 100 µM
GI50 [48]: 75.5 µM
TGI [48]: > 100 µM
GI50 [49]: 45.2 µM
TGI [49]: > 100 µM
GI50 [50]: 67.3 µM
TGI [50]: > 100 µM
GI50 [51]: 43.1 µM
TGI [51]: > 100 µM
GI50 [52]: 24.2 µM
TGI [52]: > 100 µM
GI50 [53]: > 100 µM
TGI [53]: > 100 µM
GI50 [54]: 41.1 µM
TGI [54]: > 100 µM
GI50 [55]: 47.6 µM
TGI [55]: > 100 µM
GI50 [56]: 66.3 µM
TGI [56]: > 100 µM
GI50 [57]: > 100 µM
TGI [57]: > 100 µM
GI50 [58]: 58.6 µM
TGI [58]: > 100 µM
